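Tested at 5 concentrations; 48 h exposure; 96-well plates; endpoints linearly interpolated, else capped at highest concentration. Here, GI50 denotes the concentration required for 50% inhibition of growth. TGI denotes the concentration required for complete inhibition of growth.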 *1 amine or outer side, *2 acyl side, *3 side chain or, on linkers, in order; H or OH if unused. Where a SMILES comes first, the peptide text is derived from it. CO = O=C([*:1])[*:2]
What was measured:
Assay in all cases: inhibition of tumour cell growth, NCI panel, 48 h
A549 NSCLC = test system: A549 NSCLC
HCT-116 colon = test system: HCT-116 colon
HOP-62 NSCLC = test system: HOP-62 NSCLC
NCI/ADR-RES ovarian = test system: NCI/ADR-RES ovarian
RXF 393 renal = test system: RXF 393 renal
SK-MEL-5 melanoma = test system: SK-MEL-5 melanoma
SNB-75 CNS = test system: SNB-75 CNS
U251 CNS = test system: U251 CNS
HL-60(TB) leukemia = test system: HL-60(TB) leukemia
SR leukemia = test system: SR leukemia

Structure (SMILES)	GI50 (A549 NSCLC) [µM]	TGI (A549 NSCLC) [µM]	GI50 (HCT-116 colon) [µM]	TGI (HCT-116 colon) [µM]	GI50 (HOP-62 NSCLC) [µM]	TGI (HOP-62 NSCLC) [µM]	GI50 (NCI/ADR-RES ovarian) [µM]	TGI (NCI/ADR-RES ovarian) [µM]	GI50 (RXF 393 renal) [µM]	TGI (RXF 393 renal) [µM]	GI50 (SK-MEL-5 melanoma) [µM]	TGI (SK-MEL-5 melanoma) [µM]	GI50 (SNB-75 CNS) [µM]	TGI (SNB-75 CNS) [µM]	GI50 (U251 CNS) [µM]	TGI (U251 CNS) [µM]	TGI (HL-60(TB) leukemia) [µM]	TGI (SR leukemia) [µM]	GI50 (HL-60(TB) leukemia) [µM]	GI50 (SR leukemia) [µM]
CCCCCCCCO/N=C\c1c2c(O)c3c(O)c(C)c4c(c3c1O)C(=O)C(C)(O/C=C\C(OC)C(C)C(OC(C)=O)C(C)C(O)C(C)C(O)C(C)/C=C\C=C(\C)C(=O)N2)O4 (stereo not drawn)	1.73	6.42	1.06	2.19	1.63	5.78	1.93	6.99	1.14	3.18	0.948	2.09	1.66	6.97	1.14	3.03	–	–	–	–
CC(C)C(NC(=O)C(CCCN=C(N)N)NC(=O)NC(Cc1ccccc1)C(=O)O)C(=O)NC(C=O)CCCN=C(N)N (stereo not drawn) ({Phe-CO}-Arg-Val-Arg-aldehyde; configuration not given here)	> 5	> 5	> 5	> 5	> 5	> 5	> 5	> 5	–	–	> 5	> 5	> 5	> 5	> 5	> 5	–	–	–	–
COC1=CC(C)C2C[C@H]3O[C@H](O)C[C@H]4C(C)C(=O)C(O)C([C@@]2(C)C1=O)[C@@]34C (stereo partly drawn)	–	> 100	–	> 100	–	–	–	–	–	> 100	–	> 100	–	> 100	–	–	–	–	–	–
O=C(/C=C\c1cccc2ccccc12)c1ccc(Br)cc1	–	> 100	–	30.3	–	> 100	–	–	–	–	–	38.7	–	56.3	–	29.6	43	–	–	–
C/C=C/CP(=O)(c1ccccc1)c1ccccc1	–	> 100	–	> 100	–	> 100	–	–	–	> 100	–	> 100	–	> 100	–	> 100	> 100	> 100	–	–
c1cc2[se][se]c3c4cccc5[se][se]c(c(c1)c23)c54	–	> 100	–	> 100	–	> 100	–	–	–	> 100	–	> 100	–	> 100	–	> 100	> 100	> 100	–	–
CCSc1nc(=S)[nH]c2[nH]ncc12	> 100	> 100	> 100	> 100	> 100	> 100	> 100	> 100	98.3	> 100	59.1	> 100	> 100	> 100	> 100	> 100	> 100	–	> 100	–
CC(=O)[CH-]C(C)=O.CC(=O)[CH-]C(C)=O.CC(=O)[CH-]C(C)=O.[Cl-].[Hf+4]	> 100	> 100	> 100	> 100	> 100	> 100	–	–	> 100	> 100	–	–	–	–	> 100	> 100	> 100	> 100	> 100	> 100
O=C(Nc1ccc(N=Nc2ccccc2)cc1)Sc1ccccc1C(=O)O	–	> 100	–	> 100	–	> 100	–	–	–	> 100	–	–	–	> 100	–	> 100	> 100	> 100	–	–
Cc1ccc(C2=NN(C)COC2C(F)(F)F)cc1 (stereo not drawn)	–	> 100	–	> 100	–	> 100	–	–	–	> 100	–	> 100	–	> 100	–	> 100	> 100	> 100	–	–
COc1ccc(C(=O)O)c2c(=O)c3ccccc3[nH]c12	–	> 100	–	> 100	–	> 31.6	–	–	–	> 100	–	–	–	–	–	> 100	> 100	> 100	–	–
CCN(CC)CCCN1C(=O)c2c(c(C)c3c(oc4cc(O)ccc43)c2C)C1=O	1.85	3.54	1.62	3.11	1.73	3.29	–	–	1.54	3.24	1.73	3.14	1.52	2.91	1.74	3.2	3.67	3.99	1.69	1.58
COc1cc2c(cc1OCCCCCN1CCN(c3cc(=O)oc4c(C)c(OC)ccc34)CC1)N=C[C@@H]1CCCN1C2=O	0.0211	15.4	–	–	< 0.0107	0.0301	1.55	8.25	< 0.01	< 0.0127	–	–	< 0.0155	< 0.0281	< 0.01	0.585	1.2	–	< 0.01	–
Cn1c(Cc2ccccc2)nc2cc3ccccc3cc21	31.8	> 100	21	42.2	38.3	> 100	24.8	68.7	35.6	> 100	14.8	29.1	–	–	28.2	> 100	–	48.1	–	18.1
CC1CC(C)C(=O)C(C(=O)CC2CC(=O)NC2=O)C1 (stereo not drawn)	–	> 100	–	> 100	–	> 100	–	–	–	> 100	–	–	–	> 100	–	> 100	> 100	> 100	–	–
O=C(O/N=C1/CCC/C1=C\c1ccccc1)c1ccccc1	–	> 100	–	> 100	–	> 100	–	–	–	> 100	–	> 100	–	> 100	–	> 100	> 100	> 100	–	–
N#Cc1c(C(N)=O)ncn1Cc1ccccc1	–	> 100	–	> 100	–	> 100	–	–	–	> 100	–	> 100	–	> 100	–	> 100	> 100	–	–	–
O=C(CC1(O)C(=O)Nc2ccccc21)c1ccc(O)cc1O (stereo not drawn)	–	> 100	–	> 100	–	> 100	–	–	–	> 100	–	> 100	–	> 100	–	–	> 100	–	–	–
Cn1cc(C(=O)/C(Cl)=C(\Cl)C(=O)O)c2ccccc21	–	> 100	–	> 100	–	> 100	–	–	–	> 100	–	> 100	–	> 100	–	> 100	> 100	–	–	–
CC1(C)OC(=O)C=C(O)O1.CC1(C)OC(=O)C=C(O)O1.CCO.Oc1ccc2c(c1)CCC2.[Ti]	> 100	> 100	> 100	> 100	> 100	> 100	–	–	> 100	> 100	> 100	> 100	> 100	> 100	–	–	> 100	–	> 100	–

From PubChem BioAssay (NCI)
